EP4763837A1, “PHOTOCHROMIC COMPOUND, CURABLE COMPOSITION, OPTICAL ARTICLE, LENS, AND EYEGLASSES” (TOKUYAMA CORPORATION, priority 2023, dated 2025)

Assays:
[1] = Photochromic property of photochromic laminate made by coating method; assay type: physicochemical; settings: for Residual ratio / Color developing density at 23°C: laminate by coating method; for Residual ratio: A96/A0 x 100 after 96 hours accelerated degradation, xenon weather meter X25; for Color developing density at 23°C: absorbance difference after 240 seconds irradiation at the maximum absorption wavelength of the same line
From the text: First, the photochromic compound obtained in Example 1, a photoinitiator, and a polymerizable compound were mixed to obtain a curable composition.
The polymerizable compound was a combination of the following radical polymerizable monomers:
Polyethylene glycol dimethacrylate (average molecular weight: 736): 42 parts by mass • Polyethylene glycol dimethacrylate (average molecular weight: 536): 12 parts by mass • Trimethylolpropane methacrylate: 38 parts by mass γ-Methacryloyloxypropyltrimethoxysilane: 2 parts by mass Glycidyl methacrylate: 1 part by mass.
Note that, in the curable composition, the photochromic compound was added in an amount of 0.25 mmol taking a total amount of the radical polymerizable monomers as 100 g.
Phenylbis(2,4,6-trimethylbenzoyl)phosphine oxide (photoinitiator: Omnirad 819): 0.3 parts by mass Ethylene bis(oxyethylene) bis[3-(5-tert-butyl-4-hydroxy-m-tolyl) propionate] (stabilizer, Irganox 245): 1 part by mass Bis(1,2,2,6,6-pentamethyl-4-piperidyl)sebacate: 3 parts by mass Leveling agent (L-7001) manufactured by DuPont Toray Specialty Materials K.K.: 0.1 parts by mass.
Using this curable composition, a photochromic laminate was obtained by a lamination method including polymerization as follows.
First, a thiourethane plastic lens with a center thickness of 2 mm and a refractive index of 1.60 was prepared as an optical substrate. Note that, the thiourethane plastic lens had been alkaline-etched in a 10% sodium hydroxide aqueous solution at 50°C for 5 minutes in advance, and then thoroughly washed with distilled water.
A spin coater (1H-DX2, manufactured by MIKASA CO., LTD) was used to coat a surface of the above-mentioned plastic lens with a moisture-curing primer (product name: TR-SC-P, manufactured by Tokuyama Corporation) at a rotation speed of 70 rpm for 15 seconds, followed by 1000 rpm for 10 seconds. Then, about 2 g of the photochromic curable composition obtained above was spin-coated at a rotation speed of 60 rpm for 40 seconds, followed by 600 rpm for 10 to 20 seconds so as to achieve a photochromic coating layer with a thickness of 40 µm.
The lens of which surface had been coated with the photochromic curable composition (photochromic coating layer) was irradiated with light for 90 seconds in a nitrogen gas atmosphere using a metal halide lamp with an output of 200 mW/cm^2 to cure the coating. The resultant was then further heated at 110°C for 1 hour to produce a photochromic laminate with a photochromic layer.
Photochromic laminates were produced using the photochromic compounds obtained in Examples 2 to 20 in the same manner as in Example 21.
Photochromic laminates were obtained using photochromic compounds represented by Formulae (A) to (D) below in the same manner as in Example 21. [drawing 89] [drawing 90] [drawing 91] [drawing 92] [drawing 93]
The resulting photochromic laminates were evaluated by the below-mentioned methods. • (1) Photochromic property • [1] Maximum absorption wavelength (λmax): This is the maximum absorption wavelength after color development determined by a spectrophotometer manufactured by Otsuka Electronics Co., Ltd. (instantaneous multichannel photo detector MCPD3000) and was used as an index of a color tone upon color development. • [2] Color developing density at 23°C (A23): This is a difference between an absorbance {ε(240)} after irradiation with light at 23°C for 240 seconds and an absorbance ε(0) when not irradiated with light at the maximum absorption wavelength and was used as an index of a color developing density. The higher this value is, the better a photochromic property is. • [3] Color fading half-life at 23°C [τ1/2 (sec).)]: This is a period of time taken by an absorbance at the maximum absorption wavelength of a sample to decrease to 1/2 of {ε(240)-ε(0)} when irradiation is stopped after irradiation with light at 23°C for 240 seconds, and was used as an index of a color fading rate. The shorter this period of time is, the faster the color fading rate is. • [4] […]

[2] = Solubility of photochromic compound in polymerizable compounds; assay type: physicochemical; parameters: key: 1: No haze is seen when checked under transmission of light, and the sample is completely dissolved.; 2: A very thin haze is seen to the extent that it can be seen under transmission of light.; 3: A thin haze that can be seen under transmission of light is seen.; 4: A haze can be seen even without transmission of light; settings: 35 µmol/g in radical polymerizable compound composition of Example 21, 65 to 70°C; for Dissolution for 15 min / Dissolution for 30 min / Dissolution for 45 min: stirring and ultrasonic irradiation; for Dissolution for 1 hour: head reads 60 min in Tables 8 to 14
Method: The photochromic compounds according to Examples and Comparative examples shown in Table 5 were evaluated for solubility in polymerizable compounds.
Specifically, a sample was prepared by adding each of the photochromic compounds to the composition, which consisted of a radical polymerizable compound, among the curable compositions used in Example 21.
Note that, this test was performed using "YOKAI-KUN USS-1" manufactured by NIHONSEIKI KAISHA LTD. under the following conditions: • Dissolution temperature: 65 to 70°C • Stirring condition: Stirring dial of 5. Ultrasonic irradiation condition: Irradiation interval of 3 sec.
Dissolution was checked every 15 minutes up to 1 hour later, the sample was visually checked by transmitting light through the sample, and a degree of dissolution was evaluated according to the following four evaluation criteria.
• 1: No haze is seen when checked under transmission of light, and the sample is completely dissolved. • 2: A very thin haze is seen to the extent that it can be seen under transmission of light. • 3: A thin haze that can be seen under transmission of light is seen. • 4: A haze can be seen even without transmission of light.
A shorter time required for the evaluation result to be 1 means higher solubility.

Row | SMILES | Color fading half-life at 23°C [1] [min] | Residual ratio [1] [%] | Dissolution for 15 min [2] | Dissolution for 30 min [2] | Dissolution for 45 min [2] | Dissolution for 1 hour [2] | Color developing density at 23°C [1]
1 | CCCOc1ccc(C2(c3ccc(OC)cc3)C=Cc3c4c(c5cc(C)c(OC)cc5c3O2)-c2ccc(N3CCOc5ccccc53)cc2C4(C)CC)cc1 (centres unmarked) [Formula (75-2)] | 2.33 | 64 |  |  |  |  | 
2 | CCCC1(CC)c2ccccc2-c2c1c1c(c3cc(OC)c(N(C)c4ccccc4)cc23)OC(c2ccc(OC)cc2)(c2ccc(N(c3ccccc3)c3ccccc3)cc2)C=C1 (centres unmarked) [Formula (83-2)] | 1.53 | 74 |  |  |  |  | 1.25 -
3 | CCCCC1(CC)c2ccccc2-c2c1c1c(c3cc(OC)c(N(C)c4ccccc4)cc23)OC(c2ccc(OC)cc2)(c2ccc(OC)cc2)C=C1 (centres unmarked) [Formula (80-2)] | 1.17 | 79 | 3 | 2 | 1 | 1 | 1.09 -
4 | CCCOc1ccc(C2(c3ccc(N(C)c4ccccc4)cc3)C=Cc3c4c(c5cc(-c6ccc(OC)cc6OC)c(OC)cc5c3O2)-c2ccccc2C4(C)CC)cc1F (centres unmarked) [Formula (86-1)] |  | 58 |  |  |  |  | 
5 | CCCCC1(CC)c2ccccc2-c2c1c1c(c3cc(OC)c(-c4ccc(N(c5ccccc5)c5ccccc5)cc4)cc23)OC(c2ccc(N(C)c3ccccc3)cc2)(c2ccc(OCCC)c(F)c2)C=C1 (centres unmarked) [Formula (76-6)] | 1.17 | 68 |  |  |  |  | 
6 | CCCC1(CC)c2cc(Sc3c(C)cccc3C)ccc2-c2c1c1c(c3cc(OC)ccc23)OC(c2ccc(OC)cc2)(c2ccc(N(C)c3ccccc3)cc2)C=C1 (centres unmarked) [Formula (88-1)] | 0.717 | 68 |  |  |  |  | 
7 | CCC1(CC)CCC2(CC1)c1cc(OC)ccc1-c1c2c2c(c3cc(OC)c(Sc4c(C)cccc4C)cc13)OC(c1ccc(OC)cc1)(c1ccc(N3CCOCC3)cc1)C=C2 (centres unmarked) [Formula (J), reference compound] |  |  | 4 | 3 | 3 | 2 | 
8 | CCCCC1(CC)c2cc(N(C)c3ccccc3)ccc2-c2c1c1c(c3cc(OC)c(OC)cc23)OC(c2ccc(OC)cc2)(c2ccc(OCCC)cc2)C=C1 (centres unmarked) [Formula (82-1)] |  |  | 3 | 2 | 1 | 1 | 
9 | COc1ccc(C2(c3ccc(N4CCOCC4)cc3)C=Cc3c4c(c5cc(-c6ccc(N7CCOCC7)cc6)c(OC)cc5c3O2)-c2ccc(C)cc2C4(C)C)cc1 (centres unmarked) [Formula (G), reference compound] |  |  | 4 | 3 | 3 | 2 | 
10 | CCCCCC1(CCCC)c2ccccc2-c2c1c1c(c3cc(OC)c(N4CCCc5ccccc54)cc23)OC(c2ccc(OC)cc2)(c2ccc(OCCC)cc2)C=C1 (centres unmarked) [Formula (16-1)] |  | 59 |  |  |  |  | 1.29 -
11 | CCCCCCC1(CCCC)c2cc(OC)ccc2-c2c1c1c(c3cc(OC)c(Sc4c(C)cccc4C)cc23)OC(c2ccc(OC)cc2)(c2ccc(N3CCOCC3)cc2)C=C1 (centres unmarked) [Formula (85-1)] |  |  | 3 | 2 | 1 | 1 | 
12 | CCCCC1(CC)c2ccccc2-c2c1c1c(c3cc(OC)c(-c4ccccc4N4CCOCC4)cc23)OC(c2ccc(OC)cc2)(c2ccc(OC)cc2)C=C1 (centres unmarked) [Formula (81-2)] | 1.67 |  |  |  |  |  | 
13 | COc1ccc(C2(c3ccc(N(c4ccccc4)c4ccccc4)cc3)C=Cc3c4c(c5cc(-c6c(OC)cc(OC)cc6OC)c(OC)cc5c3O2)-c2ccccc2C4(C)C)cc1 (centres unmarked) [Formula (L), reference compound] |  |  | 4 | 3 | 2 | 1 | 
14 | CCCC1(CC)c2cc(C)ccc2-c2c1c1c(c3cc(OC)c(-c4ccc(N5CCOCC5)cc4)cc23)OC(c2ccc(C)cc2)(c2ccc(N(C)c3ccccc3)cc2)C=C1 (centres unmarked) [Formula (84-1)] | 2 | 62 |  |  |  |  | 
15 | CCCC1(C)c2ccccc2-c2c1c1c(c3cc(OC)c(-c4c(OC)cc(OC)cc4OC)cc23)OC(c2ccc(OC)cc2)(c2ccc(N(c3ccccc3)c3ccccc3)cc2)C=C1 (centres unmarked) [Formula (89-1)] |  |  | 4 | 2 | 1 | 1 | 

Other lines, results leading:

Row | Color fading half-life at 23°C [1] [min] | Residual ratio [1] [%] | Dissolution for 15 min [2] | Dissolution for 30 min [2] | Dissolution for 45 min [2] | Dissolution for 1 hour [2] | Color developing density at 23°C [1] | SMILES
16 |  |  | 4 | 3 | 3 | 2 |  | CCC1(CC)c2ccccc2-c2c1c1c(c3cc(OC)c(N(C)c4ccccc4)cc23)OC(c2ccc(OC)cc2)(c2ccc(OC)cc2)C=C1 [Formula (F), reference compound]
17 |  | 57 |  |  |  |  |  | CCCOc1ccc(C2(c3ccc(OC)cc3)C=Cc3c4c(c5cc(OC)c(OC)cc5c3O2)-c2ccc(Sc3cccc(C(F)(F)F)c3)cc2C4(CC)CCC)cc1 (centres unmarked) [Formula (72-3)]
18 |  |  | 4 | 3 | 3 | 2 |  | COc1ccc(C2(c3ccc(N4CCOCC4)cc3)C=Cc3c4c(c5ccc(OC)cc5c3O2)-c2ccc(OC)cc2C42CC(C)(C)CC(C)(C)C2)cc1 (centres unmarked) [Formula (E), reference compound]
19 |  |  | 4 | 4 | 3 | 3 |  | COc1ccc(C2(c3ccc(N4CCOCC4)cc3)C=Cc3c4c(c5cc(Sc6c(C)cccc6C)c(OC)cc5c3O2)-c2ccc(OC)cc2C4(C)C)cc1 (centres unmarked) [Formula (K), reference compound]
20 |  |  | 3 | 1 | 1 | 1 |  | CCC(C)C1(CC)c2cc(OC)ccc2-c2c1c1c(c3cc(OC)ccc23)OC(c2ccc(OC)cc2)(c2ccc(N3CCOCC3)cc2)C=C1 (centres unmarked) [Formula (3-2)]
21 |  |  | 4 | 3 | 3 | 2 |  | COc1ccc(C2(c3ccc(OC)cc3)C=Cc3c4c(c5ccc(OC)cc5c3O2)-c2ccc(OC(F)(F)F)cc2C4(C)C)cc1 [Formula (H), reference compound]
22 |  |  | 4 | 4 | 3 | 3 |  | CCCOc1ccc(C2(c3ccc(OC)cc3)C=Cc3c4c(c5cc(OC)c(OC)cc5c3O2)-c2ccc(N(C)c3ccccc3)cc2C4(C)C)cc1 (centres unmarked) [Formula (I), reference compound]
